The results in this text go back to patent US20240116985A1, “STAPLED PEPTIDES AND METHODS THEREOF” (priority 2020, published 2024).

The assay has as its target T1, full-length beta-Catenin (Uniprot ID P35222) (Homo sapiens, UniProt P35222).
T1 construct: 10 nM full-length beta-Catenin (Uniprot ID P35222)
T1 sequence (P35222 1-781): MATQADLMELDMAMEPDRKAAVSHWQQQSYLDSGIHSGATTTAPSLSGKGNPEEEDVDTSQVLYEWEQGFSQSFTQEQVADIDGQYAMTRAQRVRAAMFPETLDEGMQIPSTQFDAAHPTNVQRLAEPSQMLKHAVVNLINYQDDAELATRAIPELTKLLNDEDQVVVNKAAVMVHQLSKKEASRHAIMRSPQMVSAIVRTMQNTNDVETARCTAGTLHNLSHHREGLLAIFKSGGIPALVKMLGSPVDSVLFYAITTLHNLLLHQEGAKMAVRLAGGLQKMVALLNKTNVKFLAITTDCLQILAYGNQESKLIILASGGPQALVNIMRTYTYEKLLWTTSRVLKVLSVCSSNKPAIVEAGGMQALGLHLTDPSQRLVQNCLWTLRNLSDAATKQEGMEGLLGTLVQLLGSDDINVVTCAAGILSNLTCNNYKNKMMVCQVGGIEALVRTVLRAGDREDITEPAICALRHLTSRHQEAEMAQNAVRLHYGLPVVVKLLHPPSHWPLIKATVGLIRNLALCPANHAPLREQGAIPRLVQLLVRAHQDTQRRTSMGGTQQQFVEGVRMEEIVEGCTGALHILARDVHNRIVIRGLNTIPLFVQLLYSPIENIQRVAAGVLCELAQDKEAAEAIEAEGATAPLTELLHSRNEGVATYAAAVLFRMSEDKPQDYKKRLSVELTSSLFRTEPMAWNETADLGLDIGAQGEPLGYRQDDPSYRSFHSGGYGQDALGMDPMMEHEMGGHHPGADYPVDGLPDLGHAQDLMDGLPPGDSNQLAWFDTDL
Briefly: Fluorescence polarization IC50 (beta-catenin / 5FAM-TCF4 10-53 competition). Format: binding. The settings on record: fluorescence polarization; read-out: beta-Catenin FP IC50. Background: Fluorescence polarisation rises when a labelled molecule tumbles more slowly, as on binding a larger partner.
The term IC50 denotes the concentration needed to halve the response being measured. Turning to `CC(=O)N1CCC[C@]12CC=CCCCC1(CCCC=CCCCOC(=O)N3CC[C@@](C(=O)N[C@@H](Cc4ccsc4)C(=O)N[C@@H](Cc4csc5ccccc45)C(=O)N[C@@H](CCC(N)=O)C(N)=O)(C3)NC(=O)[C@H](CC(N)=O)NC(=O)[C@H](Cc3ccccc3)NC(=O)[C@H](C)NC(=O)[C@H](C)NC(=O)[C@H]([C@@H](C)O)NC(=O)[C@H](CC(N)=O)NC1=O)NC(=O)[C@H](CC(C)(C)C)NC(=O)[C@H](Cc1cccc(C(=O)O)c1)NC2=O` (stereo partly drawn) [I-2135, Ac-PL3-3COOHF-Npg-B5-Asn-Thr-Ala-Ala-Phe-Asn-PyrS2-3Thi-BztA-Gln-NH2], the IC50 stood at 3410 nM.

Turning to `CC(=O)N1CCC[C@]12CC=CCCCC1(CCCC=CCCCOC(=O)N3CC[C@@](C(=O)N[C@@H](Cc4ccsc4)C(=O)N[C@@H](Cc4csc5ccccc45)C(=O)N[C@@H](Cc4c[nH]c5ccccc45)C(N)=O)(C3)NC(=O)[C@H](CC(N)=O)NC(=O)[C@H](Cc3ccccc3)NC(=O)[C@H](C)NC(=O)[C@H](C)NC(=O)[C@H]([C@@H](C)O)NC(=O)[C@H](CC(N)=O)NC1=O)NC(=O)[C@H](CC(C)(C)C)NC(=O)[C@H](CC(=O)O)NC2=O` (stereo partly drawn) [I-2138, Ac-PL3-Asp-Npg-B5-Asn-Thr-Ala-Ala-Phe-Asn-PyrS2-3Thi-BztA-Trp-NH2], the IC50 came to 1010 nM.

Turning to `CC(=O)N1CCC[C@]12CC=CCCCC1(CCCC=CCCCOC(=O)N3CC[C@@](C(=O)N[C@@H](Cc4ccsc4)C(=O)N[C@@H](Cc4csc5ccccc45)C(=O)N[C@@H](Cc4c[nH]c5ccccc45)C(N)=O)(C3)NC(=O)[C@H](CC(N)=O)NC(=O)[C@H](Cc3ccccc3)NC(=O)[C@H](C)NC(=O)[C@H](C)NC(=O)[C@H]([C@@H](C)O)NC(=O)[C@H](CC(N)=O)NC1=O)NC(=O)[C@H](CC(C)(C)C)NC(=O)[C@H](CC(=O)O)NC2=O` (stereo partly drawn) [I-2139, Ac-PL3-Asp-Npg-B5-Asn-Thr-Ala-Ala-Phe-Asn-PyrS2-3Thi-BztA-Trp-NH2], the IC50 is 970 nM.

As for `CC(=O)N1CCC[C@]12CC=CCCCC1(CCCC=CCCCOC(=O)N3CC[C@@](C(=O)N[C@@H](Cc4ccsc4)C(=O)N[C@@H](Cc4csc5ccccc45)C(=O)N[C@@H](Cc4c[nH]cn4)C(N)=O)(C3)NC(=O)[C@H](CC(N)=O)NC(=O)[C@H](Cc3ccccc3)NC(=O)[C@H](C)NC(=O)[C@H](C)NC(=O)[C@H]([C@@H](C)O)NC(=O)[C@H](CC(N)=O)NC1=O)NC(=O)[C@H](CC(C)(C)C)NC(=O)[C@H](CC(=O)O)NC2=O` (stereo partly drawn) [I-2140, Ac-PL3-Asp-Npg-B5-Asn-Thr-Ala-Ala-Phe-Asn-PyrS2-3Thi-BztA-His-NH2], the IC50 stood at 233 nM.

On to `CC(=O)N1CCC[C@]12CC=CCCCC1(CCCC=CCCCOC(=O)N3CC[C@@](C(=O)N[C@@H](Cc4ccsc4)C(=O)N[C@@H](Cc4csc5ccccc45)C(=O)N[C@@H](Cc4c[nH]cn4)C(N)=O)(C3)NC(=O)[C@H](CC(N)=O)NC(=O)[C@H](Cc3ccccc3)NC(=O)[C@H](C)NC(=O)[C@H](C)NC(=O)[C@H]([C@@H](C)O)NC(=O)[C@H](CC(N)=O)NC1=O)NC(=O)[C@H](CC(C)(C)C)NC(=O)[C@H](CC(=O)O)NC2=O` (stereo partly drawn) [I-2141, Ac-PL3-Asp-Npg-B5-Asn-Thr-Ala-Ala-Phe-Asn-PyrS2-3Thi-BztA-His-NH2], for which the IC50 turned out to be 310 nM.

Turning to `CC(=O)N1CCC[C@]12CC=CCCCC1(CCCC=CCCCOC(=O)N3CC[C@@](C(=O)N[C@@H](Cc4ccsc4)C(=O)N[C@@H](Cc4csc5ccccc45)C(=O)N[C@@H](C)C(N)=O)(C3)NC(=O)[C@H](CC(N)=O)NC(=O)[C@H](Cc3ccccc3)NC(=O)[C@H](C)NC(=O)[C@H](C)NC(=O)[C@H]([C@@H](C)O)NC(=O)[C@H](CC(N)=O)NC1=O)NC(=O)[C@H](CC(C)(C)C)NC(=O)[C@H](CC(=O)O)NC2=O` (stereo partly drawn) [I-2143, Ac-PL3-Asp-Npg-B5-Asn-Thr-Ala-Ala-Phe-Asn-PyrS2-3Thi-BztA-Ala-NH2], the IC50 was 217 nM.
